Reference: ChEMBL document CHEMBL1817560, “Selectivity of kinase inhibitor fragments” (J Med Chem, 2011)

What was measured:
[1] = molecular target: RAC-beta serine/threonine-protein kinase (Homo sapiens) (UniProt P31751); assay: Inhibition of AKT2 expressed in Escherichia coli or baculovirus-infected insect cells using gamma-[33P]ATP at 400 uM by scintillation proximity assay
[2] = molecular target: 3-phosphoinositide-dependent protein kinase 1 (Homo sapiens) (UniProt O15530); assay: Inhibition of PDK1 expressed in Escherichia coli or baculovirus-infected insect cells using gamma-[33P]ATP at 400 uM by scintillation proximity assay
Chain of 3-phosphoinositide-dependent protein kinase 1 (Homo sapiens) (O15530 whole entry, looked up): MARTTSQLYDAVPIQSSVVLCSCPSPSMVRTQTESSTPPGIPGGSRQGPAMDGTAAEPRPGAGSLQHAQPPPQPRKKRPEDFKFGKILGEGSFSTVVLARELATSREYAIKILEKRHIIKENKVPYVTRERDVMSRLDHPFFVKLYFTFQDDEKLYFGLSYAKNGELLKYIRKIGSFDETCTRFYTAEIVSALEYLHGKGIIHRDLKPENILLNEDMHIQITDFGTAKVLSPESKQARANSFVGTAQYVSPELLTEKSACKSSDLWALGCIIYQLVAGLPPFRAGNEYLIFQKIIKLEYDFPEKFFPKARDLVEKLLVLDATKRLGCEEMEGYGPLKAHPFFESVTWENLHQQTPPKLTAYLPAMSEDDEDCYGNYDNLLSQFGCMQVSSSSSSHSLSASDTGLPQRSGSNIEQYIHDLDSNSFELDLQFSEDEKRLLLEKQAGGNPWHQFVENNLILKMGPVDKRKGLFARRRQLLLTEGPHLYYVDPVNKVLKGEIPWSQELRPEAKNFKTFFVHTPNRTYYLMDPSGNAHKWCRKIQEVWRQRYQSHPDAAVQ

[3] = molecular target: Glycogen synthase kinase-3 beta (Homo sapiens) (UniProt P49841); assay: Inhibition of GSK3-beta expressed in Escherichia coli or baculovirus-infected insect cells using ATP as substrate at 667 uM by fluorescence polarization assay
Chain of Glycogen synthase kinase-3 beta (Homo sapiens) (P49841 whole entry, looked up): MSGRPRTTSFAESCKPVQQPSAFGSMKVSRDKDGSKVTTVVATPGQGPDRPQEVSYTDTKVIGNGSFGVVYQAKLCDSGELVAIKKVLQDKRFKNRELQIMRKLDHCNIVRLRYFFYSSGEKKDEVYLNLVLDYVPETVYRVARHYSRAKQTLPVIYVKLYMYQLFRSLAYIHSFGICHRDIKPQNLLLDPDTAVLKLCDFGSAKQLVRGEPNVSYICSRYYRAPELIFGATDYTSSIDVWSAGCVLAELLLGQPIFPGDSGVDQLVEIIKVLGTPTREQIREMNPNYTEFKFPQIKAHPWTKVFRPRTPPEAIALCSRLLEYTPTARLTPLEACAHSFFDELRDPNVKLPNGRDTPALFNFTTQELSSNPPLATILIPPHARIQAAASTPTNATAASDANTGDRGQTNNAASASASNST

[4] = molecular target: Serine/threonine-protein kinase PAK 2 (Homo sapiens) (UniProt Q13177); assay: Inhibition of PAK2 expressed in Escherichia coli or baculovirus-infected insect cells at 400 uM by IMAP assay
Chain of Serine/threonine-protein kinase PAK 2 (Homo sapiens) (Q13177 whole entry, canonical isoform): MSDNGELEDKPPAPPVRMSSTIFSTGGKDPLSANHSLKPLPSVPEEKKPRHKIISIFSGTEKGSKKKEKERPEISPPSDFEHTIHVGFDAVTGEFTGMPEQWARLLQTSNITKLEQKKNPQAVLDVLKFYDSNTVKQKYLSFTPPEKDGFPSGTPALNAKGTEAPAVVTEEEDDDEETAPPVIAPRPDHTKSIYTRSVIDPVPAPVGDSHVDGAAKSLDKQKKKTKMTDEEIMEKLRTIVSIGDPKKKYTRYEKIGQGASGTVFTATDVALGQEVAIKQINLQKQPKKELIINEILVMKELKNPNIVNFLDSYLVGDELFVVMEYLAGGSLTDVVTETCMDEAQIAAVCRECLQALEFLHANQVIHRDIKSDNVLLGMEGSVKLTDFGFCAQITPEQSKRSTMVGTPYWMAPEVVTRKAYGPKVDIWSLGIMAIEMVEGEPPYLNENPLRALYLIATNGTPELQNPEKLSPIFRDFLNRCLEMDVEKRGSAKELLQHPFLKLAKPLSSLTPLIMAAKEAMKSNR

[5] = molecular target: T1, Phosphatidylinositol 4,5-bisphosphate 3-kinase catalytic subunit delta isoform (Homo sapiens) (UniProt O00329); assay: Inhibition of PI3Kdelta expressed in Escherichia coli or baculovirus-infected insect cells using gamma-[33P]ATP at 400 uM by scintillation proximity assay
T1 sequence (whole entry): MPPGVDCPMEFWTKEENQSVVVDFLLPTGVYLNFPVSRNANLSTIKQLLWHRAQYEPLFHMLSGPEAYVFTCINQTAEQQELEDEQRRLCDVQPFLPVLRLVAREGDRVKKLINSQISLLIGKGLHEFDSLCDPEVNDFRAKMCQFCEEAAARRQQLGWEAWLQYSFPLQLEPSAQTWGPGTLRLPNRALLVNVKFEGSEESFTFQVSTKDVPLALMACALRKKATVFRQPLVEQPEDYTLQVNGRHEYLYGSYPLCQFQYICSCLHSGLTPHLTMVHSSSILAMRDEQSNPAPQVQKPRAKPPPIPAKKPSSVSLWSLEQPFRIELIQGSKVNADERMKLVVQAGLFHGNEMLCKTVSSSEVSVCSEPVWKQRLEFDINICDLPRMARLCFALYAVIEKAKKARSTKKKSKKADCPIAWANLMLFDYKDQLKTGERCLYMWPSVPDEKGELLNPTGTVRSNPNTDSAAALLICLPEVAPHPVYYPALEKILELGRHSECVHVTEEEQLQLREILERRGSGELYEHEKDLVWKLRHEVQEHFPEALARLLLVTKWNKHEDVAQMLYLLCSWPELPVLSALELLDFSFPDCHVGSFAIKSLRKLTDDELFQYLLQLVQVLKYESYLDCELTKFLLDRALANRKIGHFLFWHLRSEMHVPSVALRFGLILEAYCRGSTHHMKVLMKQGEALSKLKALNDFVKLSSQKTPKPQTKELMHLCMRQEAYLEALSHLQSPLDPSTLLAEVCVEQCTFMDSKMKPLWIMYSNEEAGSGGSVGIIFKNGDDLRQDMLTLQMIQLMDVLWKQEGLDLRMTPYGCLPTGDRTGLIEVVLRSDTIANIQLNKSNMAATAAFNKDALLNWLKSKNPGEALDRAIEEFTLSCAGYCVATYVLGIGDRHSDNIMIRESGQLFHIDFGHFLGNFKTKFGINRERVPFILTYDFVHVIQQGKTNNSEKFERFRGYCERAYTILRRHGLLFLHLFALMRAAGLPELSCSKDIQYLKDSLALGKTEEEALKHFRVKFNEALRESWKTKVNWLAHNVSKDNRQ

[6] = molecular target: T2, Mitogen-activated protein kinase kinase kinase 5 (Homo sapiens) (UniProt Q99683); assay: Inhibition of ASK1 expressed in Escherichia coli or baculovirus-infected insect cells at 667 uM by IMAP assay
T2 sequence (whole entry): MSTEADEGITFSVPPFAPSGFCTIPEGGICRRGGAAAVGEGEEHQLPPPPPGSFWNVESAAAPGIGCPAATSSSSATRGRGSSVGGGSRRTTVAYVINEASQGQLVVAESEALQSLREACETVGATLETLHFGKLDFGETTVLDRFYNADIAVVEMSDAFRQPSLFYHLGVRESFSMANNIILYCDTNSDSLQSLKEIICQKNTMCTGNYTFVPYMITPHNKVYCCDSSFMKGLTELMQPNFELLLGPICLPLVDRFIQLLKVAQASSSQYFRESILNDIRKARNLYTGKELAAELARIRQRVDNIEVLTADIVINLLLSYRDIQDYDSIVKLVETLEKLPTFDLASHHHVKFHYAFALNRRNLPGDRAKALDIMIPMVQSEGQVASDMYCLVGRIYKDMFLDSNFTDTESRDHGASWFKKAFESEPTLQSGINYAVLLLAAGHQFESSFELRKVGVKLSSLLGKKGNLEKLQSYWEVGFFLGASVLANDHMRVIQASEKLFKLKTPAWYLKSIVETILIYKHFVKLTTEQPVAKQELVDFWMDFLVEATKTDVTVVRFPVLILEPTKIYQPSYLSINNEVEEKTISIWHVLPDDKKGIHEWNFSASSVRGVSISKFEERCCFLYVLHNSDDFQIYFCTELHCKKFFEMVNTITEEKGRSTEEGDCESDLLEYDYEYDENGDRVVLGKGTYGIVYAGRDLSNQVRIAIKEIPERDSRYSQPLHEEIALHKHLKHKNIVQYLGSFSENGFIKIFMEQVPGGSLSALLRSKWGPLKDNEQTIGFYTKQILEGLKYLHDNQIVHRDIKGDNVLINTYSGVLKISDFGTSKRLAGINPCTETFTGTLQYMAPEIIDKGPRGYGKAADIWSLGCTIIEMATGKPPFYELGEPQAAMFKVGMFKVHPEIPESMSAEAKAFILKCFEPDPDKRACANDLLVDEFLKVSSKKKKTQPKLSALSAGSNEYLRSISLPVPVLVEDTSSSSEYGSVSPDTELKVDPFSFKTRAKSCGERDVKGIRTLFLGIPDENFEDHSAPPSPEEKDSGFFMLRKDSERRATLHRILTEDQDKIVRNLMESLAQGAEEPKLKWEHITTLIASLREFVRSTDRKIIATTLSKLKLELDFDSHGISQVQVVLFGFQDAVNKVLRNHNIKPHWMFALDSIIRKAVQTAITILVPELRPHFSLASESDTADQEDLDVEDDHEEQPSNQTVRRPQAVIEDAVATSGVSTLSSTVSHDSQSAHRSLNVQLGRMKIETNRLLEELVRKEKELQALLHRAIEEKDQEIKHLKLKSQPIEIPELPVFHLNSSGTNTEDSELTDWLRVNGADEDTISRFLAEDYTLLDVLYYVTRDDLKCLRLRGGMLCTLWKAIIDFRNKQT

[7] = molecular target: Serine/threonine-protein kinase B-raf (Homo sapiens) (UniProt P15056); assay: Inhibition of B-Raf expressed in Escherichia coli or baculovirus-infected insect cells using ATP as substrate at 400 uM by fluorescence polarization assay
Chain of Serine/threonine-protein kinase B-raf (Homo sapiens) (P15056 whole entry): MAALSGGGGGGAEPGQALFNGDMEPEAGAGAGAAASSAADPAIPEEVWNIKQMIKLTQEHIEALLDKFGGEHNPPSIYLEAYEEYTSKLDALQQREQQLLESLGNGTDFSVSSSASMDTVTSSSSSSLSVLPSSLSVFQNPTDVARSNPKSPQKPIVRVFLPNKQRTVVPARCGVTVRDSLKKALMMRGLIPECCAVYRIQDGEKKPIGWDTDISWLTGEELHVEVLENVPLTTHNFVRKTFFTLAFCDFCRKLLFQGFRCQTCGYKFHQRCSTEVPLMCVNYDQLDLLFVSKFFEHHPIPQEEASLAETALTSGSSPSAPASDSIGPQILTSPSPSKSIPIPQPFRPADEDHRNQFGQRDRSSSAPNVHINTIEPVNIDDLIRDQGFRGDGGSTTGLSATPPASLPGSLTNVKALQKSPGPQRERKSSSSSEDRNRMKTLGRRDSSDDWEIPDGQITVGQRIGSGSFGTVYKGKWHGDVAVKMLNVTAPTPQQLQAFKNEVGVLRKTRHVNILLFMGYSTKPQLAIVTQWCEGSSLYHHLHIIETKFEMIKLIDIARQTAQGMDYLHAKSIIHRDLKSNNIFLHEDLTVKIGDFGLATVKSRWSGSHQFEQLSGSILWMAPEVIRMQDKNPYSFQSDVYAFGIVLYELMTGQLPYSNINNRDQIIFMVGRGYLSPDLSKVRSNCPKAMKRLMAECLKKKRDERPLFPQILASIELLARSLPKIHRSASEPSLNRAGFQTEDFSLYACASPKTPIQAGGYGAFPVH

[8] = molecular target: Serine/threonine-protein kinase PAK 1 (Homo sapiens) (UniProt Q13153); assay: Inhibition of PAK1 expressed in Escherichia coli or baculovirus-infected insect cells at 400 uM by IMAP assay
Chain of Serine/threonine-protein kinase PAK 1 (Homo sapiens) (Q13153 whole entry): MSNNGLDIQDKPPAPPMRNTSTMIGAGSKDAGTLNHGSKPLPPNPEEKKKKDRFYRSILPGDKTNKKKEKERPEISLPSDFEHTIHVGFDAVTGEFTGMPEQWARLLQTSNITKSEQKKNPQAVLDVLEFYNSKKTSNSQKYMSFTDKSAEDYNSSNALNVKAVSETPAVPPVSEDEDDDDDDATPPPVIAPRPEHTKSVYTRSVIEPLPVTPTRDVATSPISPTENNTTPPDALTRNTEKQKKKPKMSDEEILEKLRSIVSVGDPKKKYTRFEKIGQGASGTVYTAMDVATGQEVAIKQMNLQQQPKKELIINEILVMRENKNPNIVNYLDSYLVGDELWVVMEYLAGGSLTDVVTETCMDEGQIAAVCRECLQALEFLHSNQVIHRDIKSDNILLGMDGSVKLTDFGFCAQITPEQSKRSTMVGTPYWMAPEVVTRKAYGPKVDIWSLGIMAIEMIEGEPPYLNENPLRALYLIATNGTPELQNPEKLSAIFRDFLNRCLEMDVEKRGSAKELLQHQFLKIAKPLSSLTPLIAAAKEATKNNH

Chain of RAC-beta serine/threonine-protein kinase (Homo sapiens) (P31751 whole entry): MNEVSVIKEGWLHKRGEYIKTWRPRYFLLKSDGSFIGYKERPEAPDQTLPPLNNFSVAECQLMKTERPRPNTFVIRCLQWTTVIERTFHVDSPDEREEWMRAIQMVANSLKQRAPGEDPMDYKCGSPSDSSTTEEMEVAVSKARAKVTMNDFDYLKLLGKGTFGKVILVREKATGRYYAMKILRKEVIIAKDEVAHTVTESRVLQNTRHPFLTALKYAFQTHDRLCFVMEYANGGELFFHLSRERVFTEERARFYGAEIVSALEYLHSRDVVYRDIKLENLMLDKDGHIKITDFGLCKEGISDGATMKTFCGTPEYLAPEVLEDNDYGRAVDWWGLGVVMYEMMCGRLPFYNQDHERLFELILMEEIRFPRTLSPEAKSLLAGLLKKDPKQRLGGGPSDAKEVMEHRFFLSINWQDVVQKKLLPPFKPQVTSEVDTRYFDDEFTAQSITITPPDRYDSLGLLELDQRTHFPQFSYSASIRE

Structure (SMILES) | inhibition [1] | inhibition [2] | inhibition [3] | inhibition [4] | inhibition [5] | inhibition [6] | inhibition [7] | inhibition [8]
Nc1n[nH]c2ncccc12 | 14% | 40% | 59% | 7% | 18% | 52% |  | 
Nc1[nH]cnc2ncnc1-2 | 7% | 77% | 57% | 36% | 68% | 88% |  | 
c1ccc2[nH]ncc2c1 [INDAZOLE] | 12% | 25% | 35% | 5% | 10% | 31% | 0% | 12%
Cc1ccc(NC(=O)Nc2cccc(C(F)(F)F)c2)cc1 | 0% | 15% | 22% | 0% | 8% | 9% |  | 
Cc1ccc(NC(=O)Nc2cc(C(C)(C)C)nn2-c2ccccc2)cc1 | 12% | 15% | 34% | 0% | 27% | 13% |  | 
Cc1ccc(C(=O)NC2CC2)cc1F | 9% | 11% | 23% | 2% | 10% | 9% |  | 
c1n[nH]c2c1CCCC2 | 13% |  | 41% | 3% | 16% |  |  | 0%

Further lines, results first:

inhibition [1] | inhibition [2] | inhibition [3] | inhibition [4] | inhibition [5] | inhibition [6] | inhibition [7] | inhibition [8] | Structure (SMILES)
16% | 27% | 55% | 3% | 19% | 10% | 10% | 19% | c1ccc(Nc2ncccn2)cc1
9% | 9% | 13% | 4% | 7% | 2% |  | 14% | c1ccc(Nc2ccccc2)cc1
6% | 8% | 19% | 5% | 10% | 0% |  |  | O=C(Nc1ccccc1)Nc1cccc(C(F)(F)F)c1
15% | 25% | 19% | 0% | 41% | 3% |  |  | CC(C)(C)c1cc(NC(=O)Nc2ccccc2)no1
16% | 20% | 11% | 5% | 11% |  |  |  | O=C(Nc1ccccc1)Nc1ccccc1
16% | 53% | 34% | 16% | 19% | 80% |  | 17% | Nc1[nH]nc2ccccc12
25% | 35% | 92% | 17% | 36% | 39% | 100% |  | Nc1ncccc1OCc1ccccc1
8% | 2% | 19% | 0% | 42% | 1% |  | 0% | c1ccc(-c2cnc3nccnn23)cc1
19% | 25% | 21% | 4% | 22% |  | 19% |  | c1cnc2[nH]ccc2c1
39% | 66% | 66% | 32% | 90% | 77% |  | 38% | Nc1ccc2ncc(-c3ccccc3)n2n1
